Measurements from PubChem BioAssay (NCI).
“And” between values parts separate entries of the source, which are not always exact repeats. Equal values may be shown once.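 How tested: cells in 96-well plates exposed to compound for 48 hours at five concentrations. Abbreviation: GI50, concentration required for 50% inhibition of growth. TGI marks complete inhibition of growth.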

Experiments:
Test in all cases: inhibition of tumour cell growth, NCI panel, 48 h
[1] = test system: NCI-H460 lung
[2] = test system: UACC-62 melanoma
[3] = test system: UO-31 renal
[4] = test system: MOLT-4 leukemia
[5] = test system: NCI-H522 lung
[6] = test system: SNB-75 CNS
[7] = test system: OVCAR-8 ovarian
[8] = test system: RXF 393 renal
[9] = test system: CCRF-CEM leukemia
[10] = test system: HL-60(TB) leukemia

Compound | TGI [1] [µM] | TGI [2] [µM] | TGI [3] [µM] | TGI [4] [µM] | TGI [5] [µM] | TGI [6] [µM] | TGI [7] [µM] | TGI [8] [µM] | TGI [9] [µM] | TGI [10] [µM] | GI50 [7] [µM] | GI50 [8] [µM] | GI50 [2] [µM] | GI50 [9] | GI50 [10] [µM] | GI50 [4] | GI50 [6] [µM]
COc1cccc(-n2c(N)c(-c3nc4cc(C(F)(F)F)ccc4s3)c3ccc([N+](=O)[O-])cc3c2=O)c1 | > 100 | > 100 | > 100 | > 100 | > 100 | > 100 |  |  |  |  |  |  |  |  |  |  | 
O=C(Nc1c(Cl)cc([N+](=O)[O-])cc1Cl)/C(=N\Nc1cccc(Cl)c1)c1c(O)c2ccccc2oc1=O | > 100 | > 100 | 78.1 | > 100 | > 100 |  | > 100 | > 100 | > 100 | > 100 |  |  |  |  |  |  | 
COc1cc([C@@H]2c3cc4c(c(O)c3C[C@H]3COC(=O)[C@@H]32)OCO4)cc(OC)c1O |  | > 200 | > 77.7 | 0.0374 |  | > 78.6 | > 200 |  | > 35.6 | 0.0066 | 0.0053 | 0.00215 | 0.00454 | 0.00337 µM and 0.02 µM | 0.00241 | 0.00384 µM and 0.0274 µM | 0.00421
CCNc1ncnc2n[nH]nc12 |  | > 100 | > 100 | > 100 | > 100 | > 100 | > 100 | > 100 | > 100 | > 100 |  |  |  |  |  |  | 
NC(CCCCNC(=O)C(Cc1ccccc1)NC(=O)OCc1ccccc1)C(=O)NC(CCCCNC(=O)C(Cc1ccccc1)NC(=O)OCc1ccccc1)C(=O)NC(CCCCNC(=O)C(Cc1ccccc1)NC(=O)OCc1ccccc1)C(=O)NC(CCCCNC(=O)C(Cc1ccccc1)NC(=O)OCc1ccccc1)C(=O)NC(CCCCNC(=O)C(Cc1ccccc1)NC(=O)OCc1ccccc1)C(=O)NC(CCCCNC(=O)C(Cc1ccccc1)NC(=O)OCc1ccccc1)C(=O)O (configuration not stated) | > 100 | > 100 | > 100 | > 100 | > 100 | > 100 | > 100 |  | > 100 | > 100 |  |  |  |  |  |  | 
CC(=O)Nc1ccc(-c2nc3ccccc3s2)cc1O | > 100 | 83.1 | > 100 | 85.6 | 9.85 | > 100 | > 100 | > 100 | > 100 |  |  |  |  |  |  |  | 
COc1cc(C=O)c(-c2cc3c(cc2C=O)OCO3)c(OC)c1OC | > 290 | > 290 |  | > 290 | 119 |  | > 290 | 154 | > 290 | > 290 |  |  |  |  |  |  | 
CCOP(C)(=O)C(Nc1ccc(F)cc1)c1ccc(F)cc1 (configuration not stated) | > 100 | > 100 | > 100 | > 100 | > 100 |  | > 100 | > 100 | > 100 | > 100 |  |  |  |  |  |  | 
N=c1oc2c(Cl)cc(Cl)cc2cc1C(=O)Nc1ccccn1 | > 100 | 61.4 | > 100 | > 100 |  | 46.1 |  | 47.7 | > 100 | > 100 |  |  |  |  |  |  | 
C/C(=N\Nc1nc2ccccc2o1)c1ccncn1 | > 42.6 |  | 75.5 | > 100 | > 32.7 | > 48.2 | 35.7 |  | > 100 | 0.0585 |  |  |  |  |  |  | 
S=C(Nc1ccccc1)N1N=C2c3ccccc3CC[C@H]2[C@@H]1c1ccccc1 | > 100 | > 100 | > 100 | > 100 | 4.12 |  | > 100 | > 100 |  | 4.83 |  |  |  |  |  |  | 
CCCCP(CCCC)(CCCC)=C(C(=O)OC)C(C(=O)OC)=C1SC(C(=O)OC)=C(C(=O)OC)S1 | 35.9 | 27.1 | 51.4 | 44.5 | 49.6 | 45.4 | 48.8 | 22.8 |  |  |  |  |  |  |  |  | 
CCN(CC)c1nc(N(C)C)c2cc(OC)ccc2n1 | > 100 | > 100 | > 100 | 65.1 | 66.9 |  | > 100 | > 100 |  | 67 |  |  |  |  |  |  | 
N#CC(c1cc(Cl)ncn1)c1nc2ccccc2s1 (configuration not stated) | > 100 |  | > 100 | > 100 | 4.47 | 28.1 | 12.5 | 42.5 |  |  |  |  |  |  |  |  | 
N#Cc1c2nc3ccccc3nc2n2ccc3ccccc3c12 | > 100 |  | > 100 | > 100 | > 100 | > 100 | > 100 |  | > 100 | > 100 |  |  |  |  |  |  | 
O=C1NN(c2ccccc2)C(=O)C2C3c4ccccc4C(c4ccccc43)C12 (configuration not stated) | > 100 | > 100 | > 100 |  | > 100 | > 100 | > 100 | > 100 | > 100 |  |  |  |  |  |  |  | 
CC(=O)NC(CCCCNC(=O)N(C)N=O)C(=O)NCc1ccccc1 (configuration not stated) | > 100 | > 100 | > 100 | > 100 | > 100 | > 100 | > 100 | > 100 | > 100 |  |  |  |  |  |  |  | 
Cc1cc(C#N)c(Nc2c(C)cccc2[N+](=O)[O-])s1 | > 100 | > 100 | > 100 | > 100 | 73.6 | 72.2 | > 100 | 55.4 | 55 |  |  |  |  |  |  |  | 
Cc1cc(-c2ccccc2)cc2[n+]1CC=C2 | > 100 |  | > 100 |  | > 100 | > 100 | > 100 | 97.6 |  | > 100 |  |  |  |  |  |  | 
C[C@@H]1OC(=O)/C(=C\N(C)C)[C@H]2CC(=O)N(CCc3cn(S(=O)(=O)C(F)(F)F)c4ccccc34)C[C@H]12 | > 100 |  | > 100 | > 100 | > 100 | > 100 |  | > 100 |  |  |  |  |  |  |  |  | 
CCCCOC(=O)C1CN2C(=NC1(C(F)(F)F)C(F)(F)F)Sc1ccccc12 (configuration not stated) | > 100 | > 100 | > 100 | 84.6 |  | > 100 | > 100 | 63.4 | > 100 | 68.9 |  |  |  |  |  |  | 
COc1ccc(-c2nnc(CCCCCCCCc3nnc(-c4ccc(OC)cc4)o3)o2)cc1 | > 100 |  | > 100 | > 100 | > 100 | 93.6 | > 100 |  | > 100 | > 100 |  |  |  |  |  |  | 
Cc1nc2c(ncn2CCO)c(=O)[nH]1 | > 100 | > 100 |  |  | > 100 | > 100 | > 100 | > 100 | > 100 | > 100 |  |  |  |  |  |  | 
